Assay results as given in US11104619B2, “Mixture for treating fertilizers containing urea” (EuroChem Agro GmbH, priority 2015, dated 2021).
Like-named read-outs stand apart in the source and are kept apart here.

What was measured:
nitrification [1] = assay: Soil incubation trial: cumulative laughing gas (N2O-N) emission; settings: 77 mg N applied; for N2O—N cumulative, % of appl.: cumulative over 28 days
nitrification [2] = assay: Soil incubation trial: recovery of applied urea N as ammonium; settings: for percentage recovery in the form of ammonium, % of applied urea (13 mg N): 28 days after application, Filder loam pH 6.8, 20° C., 200 kg urea N/ha, label gives UI/NI fraction of recommended rate (0.6 g NBPT, 3.6 g DMPSA per kg urea)
Experimental: % of applied urea (13 mg N)
A determination was carried out 28 days after application of the urea, with the percentage recovery in the form of ammonium being reported.

nitrification [3] = assay: Soil incubation trial: nitrate formed from applied urea N; settings: Filder loam, 20° C., label gives UI/NI fraction of recommended rate
Experimental: % of the urea applied (13 mg N)

urease [4] = assay: Screening trials: hydrolysis of urea in soil; settings: first few days of application; with DMPSA present
urease [5] = settings: for Ammonia emission, % of the urea applied (77 mg N): Filder loam, 20° C., label gives UI/NI fraction of recommended rate
Experimental: Screening trials were conducted to evaluate the effect of DMPSA and NBPT in the inhibition of urease and inhibition of nitrification, and to find suitable quantities for use. Serving for this purpose was a two-factorial trial design including an unfertilized control sample. For the urease inhibitor NBPT and for the nitrification inhibitor DMPSA, in each case 0%, 33%, 66% and 100% of the application rates recommended for the individual compounds when used alone were used (in this example, 0.6 g of NBPT per kg of urea and, respectively, 3.6 g of DMPSA per kg of urea), giving 16 trials (0%-0% to 100%-100%), in addition to the unfertilized control sample.
Urea fertilizer was delivered in an amount of 200 kg nitrogen per ha, corresponding to 0.51 mg of urea nitrogen per g of soil. The soil used was Filder loam with a pH of 6.8. The incubation trials were carried out at 20° C. For the investigation of trace gases, air supply was passed first through a gas sample, then through a 250 ml capacity glass bottle containing 150 g of soil, subsequently through a gas sample for the outgoing air and through an acid trap, in order, for example, to determine amounts of ammonia. For the measurement of nitrogen, about 20 g of soil were incubated; for the measurement of urea, about 5 g of soil.

CCCCNP(N)(N)=S [NBPT, N-(n-butyl)thiophosphoric triamide]
N2O—N cumulative (nitrification [1]; 0 days after appl., 150 g soil): 0 μg N2O—N Bottle^1 | N2O—N cumulative (nitrification [1]; 0.5 days after appl.): 0 μg N2O—N Bottle^1 | N2O—N cumulative (nitrification [1]; 1 day after appl., listed as UI-1_NI-0): 2 μg N2O—N Bottle^1 | N2O—N cumulative (nitrification [1]; 1 day after appl., listed as UI-2_NI-0): 1 μg N2O—N Bottle^1 | N2O—N cumulative (nitrification [1]; 1 day after appl., listed as UI-3_NI-0): 2 μg N2O—N Bottle^1 | N2O—N cumulative (nitrification [1]; 2 days after appl., listed as UI-1_NI-0): 3 μg N2O—N Bottle^1 | N2O—N cumulative (nitrification [1]; 2 days after appl., listed as UI-2_NI-0): 2 μg N2O—N Bottle^1 | N2O—N cumulative (nitrification [1]; 2 days after appl., listed as UI-3_NI-0): 7 μg N2O—N Bottle^1 | N2O—N cumulative (nitrification [1]; 3 days after appl., listed as UI-1_NI-0): 4 μg N2O—N Bottle^1 | N2O—N cumulative (nitrification [1]; 3 days after appl., listed as UI-2_NI-0): 3 μg N2O—N Bottle^1 | N2O—N cumulative (nitrification [1]; 3 days after appl., listed as UI-3_NI-0): 10 μg N2O—N Bottle^1 | N2O—N cumulative (nitrification [1]; 4 days after appl., listed as UI-1_NI-0): 5 μg N2O—N Bottle^1 | N2O—N cumulative (nitrification [1]; 4 days after appl., listed as UI-2_NI-0): 3 μg N2O—N Bottle^1 | N2O—N cumulative (nitrification [1]; 4 days after appl., listed as UI-3_NI-0): 11 μg N2O—N Bottle^1 | N2O—N cumulative (nitrification [1]; 5 days after appl., listed as UI-1_NI-0): 7 μg N2O—N Bottle^1 | N2O—N cumulative (nitrification [1]; 5 days after appl., listed as UI-2_NI-0): 4 μg N2O—N Bottle^1 | N2O—N cumulative (nitrification [1]; 5 days after appl., listed as UI-3_NI-0): 12 μg N2O—N Bottle^1 | N2O—N cumulative (nitrification [1]; 6 days after appl., listed as UI-1_NI-0): 16 μg N2O—N Bottle^1 | N2O—N cumulative (nitrification [1]; 6 days after appl., listed as UI-2_NI-0): 8 μg N2O—N Bottle^1 | N2O—N cumulative (nitrification [1]; 6 days after appl., listed as UI-3_NI-0): 13 μg N2O—N Bottle^1 | N2O—N cumulative (nitrification [1]; 8 days after appl., listed as UI-1_NI-0): 32 μg N2O—N Bottle^1 | N2O—N cumulative (nitrification [1]; 8 days after appl., listed as UI-2_NI-0): 16 μg N2O—N Bottle^1 | N2O—N cumulative (nitrification [1]; 8 days after appl., listed as UI-3_NI-0): 20 μg N2O—N Bottle^1 | N2O—N cumulative (nitrification [1]; 10 days after appl., listed as UI-1_NI-0): 48 μg N2O—N Bottle^1 | N2O—N cumulative (nitrification [1]; 10 days after appl., listed as UI-2_NI-0): 36 μg N2O—N Bottle^1 | N2O—N cumulative (nitrification [1]; 10 days after appl., listed as UI-3_NI-0): 31 μg N2O—N Bottle^1 | N2O—N cumulative (nitrification [1]; 12 days after appl., listed as UI-1_NI-0): 75 μg N2O—N Bottle^1 | N2O—N cumulative (nitrification [1]; 12 days after appl., listed as UI-2_NI-0): 67 μg N2O—N Bottle^1 | N2O—N cumulative (nitrification [1]; 12 days after appl., listed as UI-3_NI-0): 52 μg N2O—N Bottle^1 | N2O—N cumulative (nitrification [1]; 14 days after appl., listed as UI-1_NI-0): 122 μg N2O—N Bottle^1 | N2O—N cumulative (nitrification [1]; 14 days after appl., listed as UI-2_NI-0): 125 μg N2O—N Bottle^1 | N2O—N cumulative (nitrification [1]; 14 days after appl., listed as UI-3_NI-0): 90 μg N2O—N Bottle^1 | N2O—N cumulative (nitrification [1]; 17 days after appl., listed as UI-1_NI-0): 144 μg N2O—N Bottle^1 | N2O—N cumulative (nitrification [1]; 17 days after appl., listed as UI-2_NI-0): 145 μg N2O—N Bottle^1 | N2O—N cumulative (nitrification [1]; 17 days after appl., listed as UI-3_NI-0): 99 μg N2O—N Bottle^1 | N2O—N cumulative (nitrification [1]; 18 days after appl., listed as UI-1_NI-0): 179 μg N2O—N Bottle^1 | N2O—N cumulative (nitrification [1]; 18 days after appl., listed as UI-2_NI-0): 190 μg N2O—N Bottle^1 | N2O—N cumulative (nitrification [1]; 18 days after appl., listed as UI-3_NI-0): 125 μg N2O—N Bottle^1 | N2O—N cumulative (nitrification [1]; 20 days after appl., listed as UI-1_NI-0): 203 μg N2O—N Bottle^1 | N2O—N cumulative (nitrification [1]; 20 days after appl., listed as UI-2_NI-0): 215 μg N2O—N Bottle^1 | N2O—N cumulative (nitrification [1]; 20 days after appl., listed as UI-3_NI-0): 141 μg N2O—N Bottle^1 | N2O—N cumulative (nitrification [1]; 22 days after appl., listed as UI-1_NI-0): 238 μg N2O—N Bottle^1 | N2O—N cumulative (nitrification [1]; 22 days after appl., listed as UI-2_NI-0): 249 μg N2O—N Bottle^1 | N2O—N cumulative (nitrification [1]; 22 days after appl., listed as UI-3_NI-0): 156 μg N2O—N Bottle^1 | N2O—N cumulative (nitrification [1]; 24 days after appl., listed as UI-1_NI-0): 343 μg N2O—N Bottle^1 | N2O—N cumulative (nitrification [1]; 24 days after appl., listed as UI-2_NI-0): 312 μg N2O—N Bottle^1 | N2O—N cumulative (nitrification [1]; 24 days after appl., listed as UI-3_NI-0): 174 μg N2O—N Bottle^1 | N2O—N cumulative (nitrification [1]; 28 days after appl., listed as UI-1_NI-0): 497 μg N2O—N Bottle^1 | N2O—N cumulative (nitrification [1]; 28 days after appl., listed as UI-2_NI-0): 397 μg N2O—N Bottle^1 | N2O—N cumulative (nitrification [1]; 28 days after appl., listed as UI-3_NI-0): 194 μg N2O—N Bottle^1 | N2O—N cumulative, % of appl. (nitrification [1]; listed as UI-1_NI-0): 0.65 % of appl. | N2O—N cumulative, % of appl. (nitrification [1]; listed as UI-2_NI-0): 0.52 % of appl. | N2O—N cumulative, % of appl. (nitrification [1]; listed as UI-3_NI-0): 0.25 % of appl. | percentage recovery in the form of ammonium, % of applied urea (13 mg N) (nitrification [2]; listed as UI 1 NI 0): 28% | percentage recovery in the form of ammonium, % of applied urea (13 mg N) (nitrification [2]; listed as UI ⅓ NI 0): 9% | percentage recovery in the form of ammonium, % of applied urea (13 mg N) (nitrification [2]; listed as UI ⅔ NI 0): 21% | supplementary influence on ammonium recovery (nitrification [2]; after 28 days): no supplementary influence | Nitrate, % of the urea applied (13 mg N) (nitrification [3]; 5 days after application, listed as UI 1 NI 0): 11% | Nitrate, % of the urea applied (13 mg N) (nitrification [3]; 5 days after application, listed as UI ⅓ NI 0): 10% | Nitrate, % of the urea applied (13 mg N) (nitrification [3]; 5 days after application, listed as UI ⅔ NI 0): 11% | Nitrate, % of the urea applied (13 mg N) (nitrification [3]; 28 days after application, listed as UI 1 NI 0): 52% | Nitrate, % of the urea applied (13 mg N) (nitrification [3]; 28 days after application, listed as UI ⅓ NI 0): 58% | Nitrate, % of the urea applied (13 mg N) (nitrification [3]; 28 days after application, listed as UI ⅔ NI 0): 64% | inhibition of the hydrolysis of urea (urease [4]): sufficiently inhibits the hydrolysis of urea | reduction in ammonia emissions (urease [5]; 66% NBPT, especially 9 days after application): notable and almost complete reduction in ammonia emissions | Ammonia emission, % of the urea applied (77 mg N) (urease [5]; 4 days after application, listed as UI 1 NI 0): 0.0% | Ammonia emission, % of the urea applied (77 mg N) (urease [5]; 4 days after application, listed as UI ⅓ NI 0): 0.3% | Ammonia emission, % of the urea applied (77 mg N) (urease [5]; 4 days after application, listed as UI ⅔ NI 0): 0.1% | Ammonia emission, % of the urea applied (77 mg N) (urease [5]; 9 days after application, listed as UI 1 NI 0): 0.0% | Ammonia emission, % of the urea applied (77 mg N) (urease [5]; 9 days after application, listed as UI ⅓ NI 0): 1.1% | Ammonia emission, % of the urea applied (77 mg N) (urease [5]; 9 days after application, listed as UI ⅔ NI 0): 0.2% | effect on the increase in ammonia emission caused by the nitrification inhibitor (urease [5]; addition of NBPT): prevent the increase in ammonia emission
